Assays:
[1] = Body composition by DEXA scan; format: in vivo, mice; settings: 2 and 6 mg/kg
Experimental: Analysis of Body Composition: Body fat and lean mass composition, as well as the bone mineral content and density, excluding head region of interest (ROI), were determined by dual-energy X-ray absorptiometry (DEXA) scan using a mouse densitometer (PIXImus 2; Lunar, Madison, Wis., USA). According to the manufacturer's guidelines to calibrate and validate the performance of the apparatus, a “mouse phantom” provided with the machine was scanned before scanning the first mouse. Animals were […] immediately before assessment by DEXA scan. The mouse was then transferred to the disposable PIXImus measuring tray in the prone position with their head in a loosely fitting nose cone to aid positioning. Upon completion of the DEXA scan, approximately five minutes, the mouse was placed on ice to preserve tissue prior to collection.

[2] = test system: A2780 cells; experiment: Free peritoneal tumor weight (Example 1); format: in vivo, mice; settings: 2 and 6 mg/kg, vs vehicle treated group
Excerpt: Free peritoneal tumors (visible tumors) not associated with an organ were collected and weighed to assess WFA effects. […] At the time of euthanization and tissue collection, tumors associated with the intestines were found most frequently in the vehicle treated group and were of the largest size.

[3] = test system: inflammatory cytokines and NLRP3 inflammasome markers in tumor samples; experiment: qPCR of xenografted tumor samples; format: in vivo, Homo sapiens
Experimental: Total RNA Extraction and qPCR: Isolation of total RNA from xenografted tumor samples was performed using an RNeasy® Mini Kit (Qiagen Catalog #74104) according to the manufacturer's instructions. Isolation of total RNA from skeletal muscle was performed using an RNeasy® Fibrous Tissue Mini Kit (Qiagen Catalog #74704) according to the manufacturer's instructions. First strand cDNA was synthesized using 1 μg of purified RNA and a commercially available kit (iScript™ cDNA synthesis, Bio-Rad Catalog #170-8891), Quantification of mRNA expression was performed similar to as previously described (Hindi and Kumar, 2016) using the SYBR Green dye method on a StepOnePlus™ system (Applied Biosystems) using gene-specific primers, as shown in Table 1.

[4] = test system: TNFα, IFNγ, IL-6, IL-8, IL-18 in tumor samples; experiment: Human MAP multiplex assay of tumor samples; format: in vivo; settings: vs vehicle treated group
Excerpt: Samples were minced on ice with sterilized scissors.

[5] = test system: satellite cells; experiment: Satellite cell IHC (Pax7, MyoD, Laminin) in TA muscle; format: in vivo, mice
Experimental: Due to the role of WFA in inhibiting canonical NF-κ B signaling and the effect ovarian cancer has on this signaling pathway, WFA and the xenograft model were tested to measure induction or activation of satellite cells. The TA muscle was subjected to immunofluorescent immunohistochemical (IHC) staining for Pax7 (a marker of satellite cells), MyoD (a marker of myogenic differentiation), and Laminin (a marker of the basal lamina) (FIG. 15A). As accurate IHC detection of satellite cells can be challenging, individual color channels were compared against negative control slides to optimize visualization of satellite cells, minimize nonspecific background staining, and rule out false positives (Pax7^+/DAPI− cells) (37).
Initially, the number of satellite cells per field (normalized by the number of Laminin+ myofibers) was quantified to assess whether the model of ovarian cancer or WFA treatment affected the satellite cell population at large. […] There was a significant increase in the amount of Pax7+ cells in the tumor-bearing vehicle-treated group (0.34±0.01) compared to the tumor-free vehicle-treated and tumor-free WFA 2 mg/kg groups, although there was a significant reduction compared to the tumor-free WFA 4 mg/kg group (p<0.0001 for all comparisons). […] A small, but statistically significant decrease in the tumor-bearing WFA 4 mg/kg group was observed compared to the tumor-bearing vehicle-treated group (p=0.0004). […] Due to the systemic nature of WFA treatment, the tumor-specific uptake of WFA may have diminished the effect observed on skeletal muscle with respect to satellite cell activation in the tumor-bearing animals compared to the tumor-free animals.
After assessing changes in the gross number of satellite cells, the myogenic status was assessed to determine if the satellite cells were functionally activated. Satellite cells that are Pax7+/MyoD− are self-renewing or returning to quiescence, whereas satellite cells that are Pax7+/MyoD+ have committed to the myogenic lineage and will facilitate in muscle repair (6, 38). […] It was not feasible to enumerate the population of Pax7−/MyoD+ cells in response to the xenografted cancer or WFA treatment due to experimental limitations. However, distinct populations of Pax7+/MyoD− and Pax7+/MyoD+ cells were present (FIGS. 15C and 15D).

[6] = test system: heart (cardiomyocytes, collagen deposition); experiment: Histology and morphometric heart analysis; format: in vivo, mice
Excerpt: The hearts were isolated, flash frozen in liquid nitrogen, mounted in O.C.T. embedding medium, and then sectioned using a microtome cryostat. To assess tissue morphology, 8 μm thick transverse sections were cut from the mid-ventricle of the heart. These sections were then subjected to H&E staining or Masson's trichrome staining. Images of H&E-stained and Masson's trichrome-stained heart sections were quantified using Fiji software (National Institutes of Health software) to measure myofiber cross-sectional area (CSA) or the degree of collagen deposition, respectively. Cardiac myofiber CSA was calculated by analyzing 100-200 fibers per heart. Collagen deposition was quantified from the Masson's trichrome-stained tissue.

[7] = test system: CAOV3; settings: CAOV3 cells; cited from earlier work
[8] = test system: A2780 ovarian cancer xenograft; experiment: Survival and tolerability, A2780 xenograft mice (Example 1)
Experimental: Tumor-bearing groups received an IP injection of 1.0×10^6 low passage A2780 cells suspended in 100 μl sterile PBS.
Graphical Display and Statistical Analyses: The majority of the results were expressed as box-and-whisker plots with the box comprised of the first, second, and third quartiles, and the lower and upper whiskers corresponding to the minimum and maximum values, respectively, to display the entire range of data. A Kaplan-Meier curve was used for the survival analysis. Statistical analysis of the data was performed using one-way analysis of variance (ANOVA) followed by Tukey's Honestly Significant Difference Test (HSDT) post hoc analysis or the Mantel-Cox log-rank test to determine statistically significant differences between groups with GraphPad Prism 8.0.1 software for Mac (La Jolla, Calif., USA). A value of P<0.05 was considered statistically significant, unless otherwise specified.

[9] = 2 and 6 mg/kg, vs vehicle treated group

Compound: CC1=C(CO)C(=O)O[C@@H]([C@@H](C)[C@H]2CC[C@H]3[C@@H]4C[C@H]5O[C@]56[C@@H](O)C=CC(=O)[C@]6(C)[C@H]4CC[C@]23C)C1 [WFA, (4β,5β,6β,22R)-4,27-Dihydroxy-5,6:22,26-diepoxyergosta-2,24-diene-1,26-dione]
- bone mineral density or content [1]: No significant differences
- proportion of lean tissue to body weight ([1]; all tumor-bearing groups vs control): significant increase in the proportion of lean tissue to body weight
- proportion of adipose tissue to whole body weight ([1]; vs vehicle treated group): attenuation of adipose tissue
- weight of free peritoneal tumors [2]: significantly reduced the size of peritoneal tumors
- tumors associated with the intestines ([2]; at tissue collection): fewer and smaller tumors
- relative transcript levels of TNFα, IFNγ, IL-6, IL-8 in tumor ([3]; 2 mg/kg, vs vehicle treated group): significantly reduced
- relative transcript levels of HO-1 in tumor ([3]; 2 mg/kg, vs vehicle treated group (p=0.06)): trended towards an increase
- relative gene expression of IL-18 in tumor ([3]; 2 mg/kg, vs vehicle treated group (p=0.07)): trend towards reduction
- relative mRNA expression of TNFα in tumor ([3]; 6 mg/kg, vs vehicle treated group): significantly reduced
- relative transcript levels of HO-1 in tumor ([3]; 6 mg/kg, vs vehicle treated group (p=0.03)): significantly increased
- relative expression of IL-6 and IL-8 genes in tumor ([3]; 6 mg/kg, vs vehicle treated group (p=0.07, p=0.09)): trend towards reduction
- relative gene expression of IL-18 in tumor ([3]; 6 mg/kg, vs vehicle treated group (p=0.21)): did not approach the level of statistical significance
- reduction in NLRP3 mRNA levels in tumor [3, 9]: not found to be significant
- relative transcript levels of CASP1 in tumor [3, 9]: dose-dependent decrease
- relative transcript levels of IL-1β in tumor [3, 9]: significantly reduced in both WFA treated groups
- cytokine levels of IL-18 in tumor (multiplex) ([4]; 2 and 6 mg/kg): significant reduction in the cytokine levels of IL-18
- levels of TNFα, IFNγ, IL-6, IL-8 in tumor (multiplex) ([4]; high dose (6 mg/kg)): mixed result of up- and downregulation of proinflammatory cytokines
- levels of TNFα, IFNγ, IL-6, IL-8 in tumor (multiplex) ([4]; low dose (2 mg/kg)): significantly reduced the expression of all proinflammatory cytokines tested
- Pax7+ cells normalized by number of Laminin+ myofibers ([5]; tumor-bearing, WFA 2 mg/kg): 0.26±0.01
- proportion of differentiating satellite cells (Pax7+/MyoD+) ([5]; tumor-bearing, WFA 2 mg/kg): 48.85±1.63%
- proportion of proliferating satellite cells (Pax7+/MyoD−) ([5]; tumor-bearing, WFA 2 mg/kg): 51.15±1.63%
- Pax7+ cells normalized by number of Laminin+ myofibers ([5]; tumor-bearing, WFA 4 mg/kg): 0.31±0.01
- proportion of differentiating satellite cells (Pax7+/MyoD+) ([5]; tumor-bearing, WFA 4 mg/kg): 52.79±1.99%
- proportion of proliferating satellite cells (Pax7+/MyoD−) ([5]; tumor-bearing, WFA 4 mg/kg): 47.21±1.99%
- Pax7+ cells normalized by number of Laminin+ myofibers ([5]; tumor-free, WFA 2 mg/kg): 0.28±0.02
- proportion of differentiating satellite cells (Pax7+/MyoD+) ([5]; tumor-free, WFA 2 mg/kg): 60.73±2.28%
- proportion of proliferating satellite cells (Pax7+/MyoD−) ([5]; tumor-free, WFA 2 mg/kg): 39.27±2.28%
- Pax7+ cells normalized by number of Laminin+ myofibers ([5]; tumor-free, WFA 4 mg/kg): 0.42±0.01
- proportion of differentiating satellite cells (Pax7+/MyoD+) ([5]; tumor-free, WFA 4 mg/kg): 61.37±1.49%
- proportion of proliferating satellite cells (Pax7+/MyoD−) ([5]; tumor-free, WFA 4 mg/kg): 38.63±1.49%
- cross-sectional area (CSA) of cardiomyocytes ([6]; tumor-bearing WFA-treated groups vs tumor-bearing vehicle): partial recovery of the CSA of cardiomyocytes
- reduction in heart weight (normalized by tibial length) ([6]; tumor-bearing, both doses, vs tumor-bearing vehicle): significantly blunted
- percentage of connective tissue in heart ([6]; tumor-bearing, either dose, vs tumor-bearing vehicle): significantly decreased
- collagen deposition / connective tissue in heart ([6]; tumor-free WFA-treated groups vs tumor-free vehicle): comparable amount of connective tissue
- heart weight ([6]; tumor-free animals): did not have any effect on heart weight in tumor-free animals
- cell cycle arrest and apoptosis [7]: induces cell cycle arrest and the induction of apoptosis
- survival (Kaplan-Meier) ([8]; 2 mg/kg, vs WFA 6 mg/kg and vehicle treated groups): higher survival rate
- toxicity of high dose ([8]; 6 mg/kg IP every three days, tumor-bearing NSG mice): may be a lethal dose
- survival (Kaplan-Meier) ([8]; 6 mg/kg, vs vehicle treated group (p=0.06)): trend towards an increase in survival

From patent publication US20210121482A1, “WITHANOLIDES FOR THE TREATMENT OF CACHEXIA” (University of Louisville Research Foundation, Inc., priority 2019, published 2021)
